Patent US9763445B2, “Safened herbicidal compositions comprising a pyridine carboxylic acid herbicide” (Dow AgroSciences, LLC, priority 2014, dated 2017)

What was measured:
spring barley (HORVS) = assay: Postemergence greenhouse trial, % visual injury on spring barley; type: in vivo, Hordeum vulgare; settings: for % visual injury, observed (Ob): HORVS; for % visual injury, Ob: alone
Outline: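 Greenhouse crops at second to third true leaf stage sprayed postemergence at 187 L/ha with herbicide (g ae/ha) plus safener (g ai/ha) in acetone/DMSO diluted into 1.5% v/v Agri-dex. Injury scored visually versus solvent-blank controls after 20-22 d, 0 (none) to 100% (complete kill); expected mixture effects by Colby's equation.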

wild mustard (SINAR) = assay: Postemergence greenhouse trial, % visual injury on wild mustard; type: in vivo, Sinapis arvensis; settings: for % visual injury, Ob / % visual injury, observed (Ob): SINAR
Outline: (§1)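 Herbicide rates g ae/ha, safener (cloquintocet-mexyl) rates g ai/ha; spray carrier 1.5% v/v crop oil concentrate, 187 L/ha, 2nd–3rd leaf stage. Rating: visual % injury at 20-22 d.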

[1] = test system: bird's-eye speedwell (VERPE); assay: Postemergence greenhouse trial, % visual injury on bird's-eye speedwell; type: in vivo, Veronica persica
Outline: as §1

kochia (KCHSC) = assay: Postemergence greenhouse trial, % visual injury on kochia; type: in vivo, Kochia scoparia; settings: for % visual injury, Ob / % visual injury, observed (Ob): KCHSC
Outline: as §1

[2] = compound 0 g/ha, CQC-m 4.375 g/ha
[3] = compound 0 g/ha, CQC-m 8.75 g/ha
[4] = compound 0 g/ha, CQC-m 17.5 g/ha
[5] = compound 8 0 + CQC-m 4.375 g/ha

CCCCCC(C)OC(=O)COc1ccc(Cl)c2cccnc12 (stereo not shown) [CQC-m, cloquintocet-mexyl, reference compound]
0%: % visual injury, observed (Ob) (spring barley (HORVS); compound 8 0 + CQC-m 8.75 g/ha) | % visual injury, observed (Ob) (spring barley (HORVS); compound 8 0 + CQC-m 17.5 g/ha) | % visual injury, observed (Ob) (spring barley (HORVS); compound 8 0 + CQC-m 35 g/ha) | % visual injury, observed (Ob) (spring barley (HORVS); compound 8 0 + CQC-m 70 g/ha) | % visual injury, Ob (spring barley (HORVS); 4.375 g/ha) | % visual injury, Ob (spring barley (HORVS); 8.75 g/ha) | % visual injury, Ob (spring barley (HORVS); 17.5 g/ha) | % visual injury, Ob (spring barley (HORVS); 20 g/ha) | % visual injury, Ob (spring barley (HORVS); 35 g/ha) | % visual injury, Ob (spring barley (HORVS); 40 g/ha) | % visual injury, Ob (spring barley (HORVS); 70 g/ha) | % visual injury, Ob (spring barley (HORVS); 80 g/ha) | pest or weed control at 4.375 g/ha (wild mustard (SINAR); Brassica, post-emergence, alone, 4.375 g/ha, read-out: % visual injury, Ob) | pest or weed control at 8.75 g/ha (wild mustard (SINAR); Brassica, post-emergence, alone, 8.75 g/ha, read-out: % visual injury, Ob) | pest or weed control at 17.5 g/ha (wild mustard (SINAR); Brassica, post-emergence, alone, 17.5 g/ha, read-out: % visual injury, Ob) | pest or weed control at 35 g/ha (wild mustard (SINAR); Brassica, post-emergence, alone, 35 g/ha, read-out: % visual injury, Ob) | pest or weed control at 70 g/ha (wild mustard (SINAR); Brassica, post-emergence, alone, 70 g/ha, read-out: % visual injury, Ob) | % visual injury, Ob (wild mustard (SINAR); 4.375 g/ha, applied alone) | % visual injury, Ob (wild mustard (SINAR); 8.75 g/ha, applied alone) | % visual injury, Ob (wild mustard (SINAR); 17.5 g/ha, applied alone) | % visual injury, Ob (wild mustard (SINAR); 35 g/ha, applied alone) | % visual injury, Ob (wild mustard (SINAR); 70 g/ha, applied alone) | % visual injury, Ob (wild mustard (SINAR); compound 0, CQC-m 4.375 g/ha) | % visual injury, Ob (wild mustard (SINAR); compound 0, CQC-m 8.75 g/ha) | % visual injury, Ob (wild mustard (SINAR); compound 0, CQC-m 17.5 g/ha) | % visual injury, Ob (wild mustard (SINAR); compound 0, CQC-m 35 g/ha) | % visual injury, Ob (wild mustard (SINAR); compound 0, CQC-m 70 g/ha) | % visual injury, Ob (wild mustard (SINAR); [2]) | % visual injury, Ob (wild mustard (SINAR); [3]) | % visual injury, Ob (wild mustard (SINAR); [4]) | % visual injury, Ob (wild mustard (SINAR); compound 0 g/ha, CQC-m 35 g/ha) | % visual injury, Ob (wild mustard (SINAR); compound 0 g/ha, CQC-m 70 g/ha) | % visual injury, observed (Ob) (wild mustard (SINAR); [5]) | % visual injury, observed (Ob) (wild mustard (SINAR); compound 8 0 + CQC-m 8.75 g/ha) | % visual injury, observed (Ob) (wild mustard (SINAR); compound 8 0 + CQC-m 17.5 g/ha) | % visual injury, observed (Ob) (wild mustard (SINAR); compound 8 0 + CQC-m 35 g/ha) | % visual injury, observed (Ob) (wild mustard (SINAR); compound 8 0 + CQC-m 70 g/ha) | % visual injury, Ob ([1]; VERPE, compound 0, CQC-m 4.375 g/ha) | % visual injury, Ob ([1]; VERPE, compound 0, CQC-m 8.75 g/ha) | % visual injury, Ob ([1]; VERPE, compound 0, CQC-m 17.5 g/ha) | % visual injury, Ob ([1]; VERPE, compound 0, CQC-m 35 g/ha) | % visual injury, Ob ([1]; VERPE, compound 0, CQC-m 70 g/ha) | % visual injury, Ob ([1]; VERPE, compound 0 g/ha, CQC-m 4.375 g/ha) | % visual injury, Ob ([1]; VERPE, compound 0 g/ha, CQC-m 8.75 g/ha) | % visual injury, Ob ([1]; VERPE, compound 0 g/ha, CQC-m 17.5 g/ha) | % visual injury, Ob ([1]; VERPE, compound 0 g/ha, CQC-m 35 g/ha) | % visual injury, Ob ([1]; VERPE, compound 0 g/ha, CQC-m 70 g/ha) | % visual injury, observed (Ob) ([1]; VERPE, compound 8 0 + CQC-m 4.375 g/ha) | % visual injury, observed (Ob) ([1]; VERPE, compound 8 0 + CQC-m 8.75 g/ha) | % visual injury, observed (Ob) ([1]; VERPE, compound 8 0 + CQC-m 17.5 g/ha) | % visual injury, observed (Ob) ([1]; VERPE, compound 8 0 + CQC-m 35 g/ha) | % visual injury, observed (Ob) ([1]; VERPE, compound 8 0 + CQC-m 70 g/ha) | % visual injury, Ob ([1]; alone, 4.375 g/ha) | % visual injury, Ob ([1]; alone, 8.75 g/ha) | % visual injury, Ob ([1]; alone, 17.5 g/ha) | % visual injury, Ob ([1]; alone, 35 g/ha) | % visual injury, Ob ([1]; alone, 70 g/ha) | pest or weed control at 4.375 g/ha (kochia (KCHSC); Bassia scoparia, post-emergence, alone, 4.375 g/ha, read-out: % visual injury, Ob) | pest or weed control at 8.75 g/ha (kochia (KCHSC); Bassia scoparia, post-emergence, alone, 8.75 g/ha, read-out: % visual injury, Ob) | pest or weed control at 17.5 g/ha (kochia (KCHSC); Bassia scoparia, post-emergence, alone, 17.5 g/ha, read-out: % visual injury, Ob) | pest or weed control at 20 g/ha (kochia (KCHSC); Bassia scoparia, post-emergence, alone, 20 g/ha, read-out: % visual injury, Ob) | pest or weed control at 35 g/ha (kochia (KCHSC); Bassia scoparia, post-emergence, alone, 35 g/ha, read-out: % visual injury, Ob) | pest or weed control at 40 g/ha (kochia (KCHSC); Bassia scoparia, post-emergence, alone, 40 g/ha, read-out: % visual injury, Ob) | pest or weed control at 70 g/ha (kochia (KCHSC); Bassia scoparia, post-emergence, alone, 70 g/ha, read-out: % visual injury, Ob) | pest or weed control at 80 g/ha (kochia (KCHSC); Bassia scoparia, post-emergence, alone, 80 g/ha, read-out: % visual injury, Ob) | % visual injury, Ob (kochia (KCHSC); 4.375 g/ha, applied alone) | % visual injury, Ob (kochia (KCHSC); 8.75 g/ha, applied alone) | % visual injury, Ob (kochia (KCHSC); 17.5 g/ha, applied alone) | % visual injury, Ob (kochia (KCHSC); 35 g/ha, applied alone) | % visual injury, Ob (kochia (KCHSC); 70 g/ha, applied alone) | % visual injury, Ob (kochia (KCHSC); compound 0, CQC-m 4.375 g/ha) | % visual injury, Ob (kochia (KCHSC); compound 0, CQC-m 8.75 g/ha) | % visual injury, Ob (kochia (KCHSC); compound 0, CQC-m 17.5 g/ha) | % visual injury, Ob (kochia (KCHSC); compound 0, CQC-m 35 g/ha) | % visual injury, Ob (kochia (KCHSC); compound 0, CQC-m 70 g/ha) | % visual injury, Ob (kochia (KCHSC); [2]) | % visual injury, Ob (kochia (KCHSC); [3]) | % visual injury, Ob (kochia (KCHSC); [4]) | % visual injury, Ob (kochia (KCHSC); compound 0 g/ha, CQC-m 35 g/ha) | % visual injury, Ob (kochia (KCHSC); compound 0 g/ha, CQC-m 70 g/ha) | % visual injury, observed (Ob) (kochia (KCHSC); [5]) | % visual injury, observed (Ob) (kochia (KCHSC); compound 8 0 + CQC-m 8.75 g/ha) | % visual injury, observed (Ob) (kochia (KCHSC); compound 8 0 + CQC-m 17.5 g/ha) | % visual injury, observed (Ob) (kochia (KCHSC); compound 8 0 + CQC-m 35 g/ha) | % visual injury, observed (Ob) (kochia (KCHSC); compound 8 0 + CQC-m 70 g/ha)
